Results reported in US20230073777A1, “CYCLIC-AMP RESPONSE ELEMENT BINDING PROTEIN (CBP) AND/OR ADENOVIRAL E1A BINDING PROTEIN OF 300 KDA (P300) DEGRADATION COMPOUNDS AND METHODS OF USE” (CULLGEN (SHANGHAI), INC., priority 2019, published 2023).

Legend:
Type in all cases: cell-based
LNCaP cells = assay: LNCaP cell viability assay (CellTiter-Glo); details: Homo sapiens; cell viability, LNCaP clone FGC, Prostate carcinoma (Table 4)
Outline: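 Three-day treatment of LNCaP cells (5000 per well) across a 12-point, 3-fold dilution series starting at 10 μM. ATP luminescence (CellTiter-Glo) relative to untreated controls gave dose-response curves fitted nonlinearly for IC50.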

HEL = assay: Cell viability assay, HEL; details: Homo sapiens, Erythroleukemia
Experimental: (§1) Cells were seeded at a density of 5000 cells per well in 96-well assay plates and treated with test compounds following a 12-point 3-fold serial dilution. Three days later, cell viability was determined using the CellTiter-Glo assay kit according to the manufacturer's instructions. The dose-response curves were determined and IC50 values were calculated using the GraphPad Prism software following a nonlinear regression (least squares fit) method.
(§2) The IC50 value of each compound was determined as described in FIG. 4 and calculated using the GraphPad Prism 5.0 software.

MV4; 11 = assay: Cell viability assay, MV4; 11; details: Homo sapiens, 11, Acute monocytic leukemia
Experimental: as §1, §2

Kasumi-1 = assay: Cell viability assay, Kasumi-1; details: Homo sapiens, Kasumi-1, Acute myeloid leukemia
Experimental: as §1, §2

NOMO-1 = assay: Cell viability assay, NOMO-1; details: Homo sapiens, NOMO-1, Acute monocytic leukemia
Experimental: as §1, §2

MOLM-13 = assay: Cell viability assay, MOLM-13; details: Homo sapiens, MOLM-13, Acute monocytic leukemia
Experimental: as §1, §2

HL-60 = assay: Cell viability assay, HL-60; details: Homo sapiens, HL-60, Acute myeloid leukemia
Experimental: as §1, §2

MEG-01 = assay: Cell viability assay, MEG-01; details: Homo sapiens, MEG-01, Chronic myeloid leukemia
Experimental: as §1, §2

MM.1S = assay: Cell viability assay, MM.1S; details: Homo sapiens, MM1.S, Multiple Myeloma
Experimental: as §1, §2

MM.1R = assay: Cell viability assay, MM.1R; details: Multiple Myeloma
Experimental: as §1, §2

NCI-H929 = assay: Cell viability assay, NCI-H929; details: Homo sapiens, NCI-H929, Multiple Myeloma
Experimental: as §1, §2

L-363 = assay: Cell viability assay, L-363; details: Homo sapiens, L-363, Multiple myeloma
Experimental: as §1, §2

RPMI-8226 = assay: Cell viability assay, RPMI-8226; details: Homo sapiens, RPMI-8226, Multiple myeloma
Experimental: as §1, §2

AMO-1 = assay: Cell viability assay, AMO-1; details: Homo sapiens, AMO1, AMO-1, Multiple Myeloma
Experimental: as §1, §2

WSU-DLCL2 = assay: Cell viability assay, WSU-DLCL2; details: Homo sapiens, WSUDLCL2, WSU-DLCL2, Diffuse large B-cell lymphoma
Experimental: as §1, §2

Karpas-422 = assay: Cell viability assay, Karpas-422; details: Homo sapiens, Karpas-422, Diffuse large B-cell lymphoma
Experimental: as §1, §2

Pfeiffer = assay: Cell viability assay, Pfeiffer; details: Homo sapiens, Diffuse large B-cell lymphoma
Experimental: as §1, §2

SU-DHL-1 = assay: Cell viability assay, SU-DHL-1; details: Homo sapiens, SU-DHL-1, Diffuse large B-cell lymphoma
Experimental: as §1, §2

VCaP = assay: Cell viability assay, VCaP; details: Homo sapiens, Prostate carcinoma
Experimental: as §1, §2

22Rv1 = assay: Cell viability assay, 22Rv1; details: Homo sapiens, 22Rv1, Prostate carcinoma
Experimental: as §1, §2

NCI-H520 = assay: Cell viability assay, NCI-H520; details: Homo sapiens, NCI-H520, Non-small cell lung cancer
Experimental: as §1, §2

NCI-H1703 = assay: Cell viability assay, NCI-H1703; details: Homo sapiens, NCI-H1703, Non-small cell lung cancer
Experimental: as §1, §2

LK-2 = assay: Cell viability assay, LK-2; details: Homo sapiens, LK-2, Non-small cell lung cancer
Experimental: as §1, §2

MCF-7 = assay: Cell viability assay, MCF-7; details: Homo sapiens, MCF7, MCF-7, breast carcinoma
Experimental: as §1, §2

SK-BR-3 = assay: Cell viability assay, SK-BR-3; details: Homo sapiens, SK-BR-3, breast carcinoma
Experimental: as §1, §2

IC50 (LNCaP cells): 4.17 µM | IC50 (MV4; 11): > 10 µM | IC50 (MOLM-13): > 10 µM | IC50 (HL-60): > 10 µM | IC50 (MM.1S): 0.0128 µM | IC50 (MM.1R): 0.0132 µM | IC50 (NCI-H929): 0.0156 µM | IC50 (RPMI-8226): 0.0103 µM | IC50 (Karpas-422): > 10 µM | IC50 (SU-DHL-1): > 1 µM | IC50 (VCaP): 0.723 µM | IC50 (22Rv1): 1.68 µM | IC50 (NCI-H520): 5.38 µM | IC50 (NCI-H1703): > 10 µM | IC50 (MCF-7): 2.39 µM | IC50 (SK-BR-3): > 10 µM
SMILES: CNC(=O)N1CCc2c(c(N3CCCc4cc(-c5cnn(C)c5)c(C(F)F)cc43)nn2C2CCOCC2)C1 [GNE-781, reference compound]
IC50 (HEL): > 10 µM | IC50 (Kasumi-1): 0.346 µM | IC50 (NOMO-1): > 10 µM | IC50 (MEG-01): > 10 µM | IC50 (L-363): > 1 µM | IC50 (AMO-1): 0.138 µM | IC50 (WSU-DLCL2): 0.014 µM | IC50 (Pfeiffer): 0.132 µM | IC50 (LK-2): 2.71 µM
